Data as given in patent US10669274B2, “Azaphenalene-3-one derivative, preparation method therefor, and application therof” (SUZHOU KANGRUN PHARMACEUTICALS INC., priority 2017, dated 2020).

Molecular target: T1, PARP1 (Homo sapiens, UniProt P09874)
T1 construct: purchased Trevigen
Test: Determination of PARP1 inhibitory activity (Universal PARP colorimetric assay kit, Trevigen)
Format: biochemical
Conditions: for IC50: PARP1, OD at 450 nm, Logit method; for Inhibition (%): footnote: inhibition rate below 500 nM unless indicating otherwise
Method: Determination of PARP1 inhibitory activity
Method for determining PARP1 inhibitory activity:
(1) adding 50 μL of 1X PARP Buffer to each well, incubating for 30 min at room temperature, and drying;
(3) adding 25 μL of 1X PARP1 cocktail to each well and incubating for 60 min at room temperature;

T1 sequence (P09874 whole entry): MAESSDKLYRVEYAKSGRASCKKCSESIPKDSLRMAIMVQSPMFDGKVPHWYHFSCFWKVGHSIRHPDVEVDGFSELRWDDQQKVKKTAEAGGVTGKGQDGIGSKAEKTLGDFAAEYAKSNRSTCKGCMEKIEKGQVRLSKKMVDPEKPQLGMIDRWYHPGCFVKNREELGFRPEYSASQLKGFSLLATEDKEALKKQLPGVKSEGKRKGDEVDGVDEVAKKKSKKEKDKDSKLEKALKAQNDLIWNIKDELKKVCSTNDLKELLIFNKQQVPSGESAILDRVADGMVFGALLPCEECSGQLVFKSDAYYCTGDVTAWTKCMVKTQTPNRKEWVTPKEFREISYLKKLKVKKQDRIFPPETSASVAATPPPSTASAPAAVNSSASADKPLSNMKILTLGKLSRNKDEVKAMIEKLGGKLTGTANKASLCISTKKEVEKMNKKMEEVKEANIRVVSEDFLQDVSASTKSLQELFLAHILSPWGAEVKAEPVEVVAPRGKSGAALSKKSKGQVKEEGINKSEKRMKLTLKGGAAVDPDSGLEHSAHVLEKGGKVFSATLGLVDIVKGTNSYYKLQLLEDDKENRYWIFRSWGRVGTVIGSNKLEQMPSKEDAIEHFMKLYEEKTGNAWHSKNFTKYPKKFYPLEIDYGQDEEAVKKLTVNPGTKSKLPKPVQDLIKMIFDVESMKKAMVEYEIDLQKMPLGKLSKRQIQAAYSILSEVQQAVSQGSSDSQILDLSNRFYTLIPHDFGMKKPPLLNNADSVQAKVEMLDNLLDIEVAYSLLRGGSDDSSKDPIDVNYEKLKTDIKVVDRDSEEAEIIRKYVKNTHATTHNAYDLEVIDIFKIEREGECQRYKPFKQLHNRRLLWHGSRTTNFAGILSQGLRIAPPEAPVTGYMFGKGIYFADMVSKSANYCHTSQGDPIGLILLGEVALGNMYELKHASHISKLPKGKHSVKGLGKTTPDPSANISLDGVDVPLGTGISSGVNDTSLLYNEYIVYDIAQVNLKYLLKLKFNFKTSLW

Compound	inhibition at 10 µM (PARP1 enzyme inhibition rate, 10 μM) [%]	inhibition at 1 µM (PARP1 enzyme inhibition rate, 1 μM) [%]	IC50 [nM]	Inhibition (%) (PARP1 enzyme inhibition rate)
O=c1[nH]nc2c3c(cccc13)N=C1C=CC(CN3CCCC3)=CN12 [Compound A4]	–	–	103	84.77
O=c1[nH]nc2c3c(cccc13)N=C1C=CC(CNCC(F)(F)F)=CN12 [Compound A2]	–	–	346	76.29
CNC1CCN(CC2=CN3C(=Nc4cccc5c(=O)[nH]nc3c45)C=C2)CC1 [Compound A8]	–	–	–	79.97
CN(CC1=CN2C(=Nc3cccc4c(=O)[nH]nc2c34)C=C1)C1CCN(c2ccccc2)CC1 [Compound A11]	–	–	160	92.42
CCN(CC)CC1=CN2C(=Nc3cccc4c(=O)[nH]nc2c34)C=C1 [Compound A3]	–	–	137	84.77
CC1=CN2C(=Nc3cccc4c(=O)[nH]nc2c34)C=C1 [Compound 9]	–	–	81.9	87.58
CN(CC1=CN2C(=Nc3cccc4c(=O)[nH]nc2c34)C=C1)C1CCN(Cc2ccccc2)CC1 [Compound A12]	–	–	–	89.42
CN(C)C1CCN(CC2=CN3C(=Nc4cccc5c(=O)[nH]nc3c45)C=C2)CC1 [Compound A9]	–	–	–	82.15
O=c1[nH]nc2c3c(cccc13)N=C1C=CC(CN3CCOCC3)=CN12 [Compound A7]	–	–	194	73.37
O=c1[nH]nc2c3c(cccc13)N=C1C=CC(CN3CCCCC3)=CN12 [Compound A6]	–	–	294	91.67
O=c1[nH]nc2c3c(cccc13)N=C1C=CC(Cn3ccnc3)=CN12 [Compound A5]	–	–	164	95.72
CN1CCC(N(C)CC2=CN3C(=Nc4cccc5c(=O)[nH]nc3c45)C=C2)CC1 [Compound A10]	–	–	119	88.97
O=c1[nH]nc2c3c(cccc13)N=C1C=CC(CN3CCc4ccc(F)cc4C3)=CN12 [Compound A13]	–	–	–	79.67

Continued, in another order:

inhibition at 10 µM (PARP1 enzyme inhibition rate, 10 μM) [%]	inhibition at 1 µM (PARP1 enzyme inhibition rate, 1 μM) [%]	Compound	IC50 [nM]	Inhibition (%) (PARP1 enzyme inhibition rate)
16.9	–	NC(=O)c1cccc(N)c1 [Compound 3-AB, reference compound]	–	–
–	23.6	NC(=O)c1ccc(I)c([N+](=O)[O-])c1 [BSI-201, reference compound]	–	–
